In patent US6440974B2, “Compounds useful for inhibition of farnesyl protein transferase” (Schering Corporation, priority 1997, dated 2002):

What was measured:
[1] = target: farnesyl protein transferase (Homo sapiens, UniProt P49354+P49356); experiment: FPT IC50 (inhibition of farnesyl protein transferase, in vitro enzyme assay); format: biochemical
Procedure: (§1) FPT IC50 (inhibition of famesyl protein transferase, in vitro enzyme assay) and COS Cell IC50 (Cell-Based Assay) were determined following the assay procedures described in WO 95/10516, published Apr. 20, 1995. GGPIT IC50 (inhibition of geranylgeranyl protein transferase, in vitro enzyme assay), Cell Mat Assay, and anti-tumor activity (in vivo anti-tumor studies) could be determined by the assay procedures described in WO 95/10516. The disclosure of WO 95/10516 is incorporated herein by reference thereto.

COS Cell = COS Cell IC50 (Cell-Based Assay); settings: for IC50: cell-based assay
Procedure: as §1

Human tumor cells = experiment: Soft Agar Assay (anchorage-independent growth); format: cell-based
Procedure: Anchorage-independent growth is a characteristic of tumorigenic cell lines. Human tumor cells can be suspended in growth medium containing 0.3% agarose and an indicated concentration of a farnesyl transferase inhibitor. The solution can be overlayed onto growth medium solidified with 0.6% agarose containing the same concentration of farnesyl transferase inhibitor as the top layer. After the top layer is solidified, plates can be incubated for 10-16 days at 37° C. under 5% CO2 to allow colony outgrowth. After incubation, the colonies can be stained by overlaying the agar with a solution of MTT (3-[4,5-dimethylthiazol-2-yl]-2,5-diphenyltetrazolium bromide, Thiazolyl blue) (1 mg/mL in PBS). Colonies can be counted and the IC50's can be determined.

SMILES	IC50 [1] [nM]	IC50 (COS Cell; COS) [nM]	melting point	COS Cell, percent at given concentration (printed in the COS Cell IC50 column) (COS Cell; @ 10 nM) [% @ 10]	IC50 (Human tumor cells) [nM]	IC50 (COS Cell) [nM]
O=C(CN1CC[S+]([O-])CC1)N1CCN(C2c3ccc(Cl)c(Br)c3CCc3cc(Br)cnc32)CC1 (centres unmarked) [Example 39]	4.7	68				
O=C(CN1CCOCC1)N1CCC([C@H]2c3ncc(Br)cc3CCc3cc(Cl)cc(Br)c32)CC1 [Example 36]	3.1					
O=C(CC1CCCO1)N1CCC(C2c3ncc(Br)cc3CCc3cc(Cl)cc(Br)c32)CC1 (centres unmarked) [Example 7]	42		107 to 115 °C (dec.)			
O=C(CC1CCCCO1)N1CCC(C2c3ncc(Br)cc3CCc3cc(Cl)cc(Br)c32)CC1 (centres unmarked) [Example 8]	2	68	116 to 122 °C (dec.)			
O=C(CC1COCCO1)N1CCC(C2c3ncc(Br)cc3CCc3cc(Cl)cc(Br)c32)CC1 (centres unmarked) [Example 6]	23		111 to 124 °C (dec.)			
O=C(CC1CCOCC1)N1CCC([C@H]2c3ncc(Br)cc3CCc3cc(Cl)cc(Br)c32)CC1 [Example 1]			83.2 to 88.7 °C			
O=C(CC1CCOCC1)N1CCC([C@@H]2c3c(Br)cc(Cl)cc3CCc3cc(Br)c[n+]([O-])c32)CC1 [Example 40]	2.2		141 to 151 °C (dec.)	100	8	
O=C(CN1CCSCC1)N1CCC([C@H]2c3ncc(Br)cc3CCc3cc(Cl)cc(Br)c32)CC1 [Example 37]	4.9	< 10				
O=C(C1CC2CCC1CO2)N1CCC(C2c3ncc(Br)cc3CCc3cc(Cl)cc(Br)c32)CC1 (single isomer, unassigned) [Example 29]	6.7		152 to 164 °C (dec.)			30
O=C(CC1=CCOCC1)N1CCC(C2c3ncc(Br)cc3CCc3cc(Cl)cc(Br)c32)CC1 (centres unmarked) [Example 3]	6.1		110.3 to 113.9 °C			
O=C(CC1CCOCC1)N1CCN([C@@H]2c3ccc(Cl)cc3CCc3cc(Br)cnc32)CC1 [Example 33]	45					
O=C(C1CC2CCC1CO2)N1CCC(C2c3ncc(Br)cc3CCc3cc(Cl)cc(Br)c32)CC1 (single isomer, unassigned) [Example 30]	7.5		151 to 159 °C (dec.)			75
